# Where two headings read alike, the source gives them in different places.
# Experiments:
# [1] = test system: AsPC-1 cells (KRAS G12D mutation); assay: 3D cell proliferation assay (CellTiter Glo-3D), AsPC-1; assay type: cell-based, human; conditions: medium with 2% FBS, read-out: AsPC-1 AP IC50
# In short: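 Luminescence read-out (CellTiter-Glo 3D) after 5-day compound exposure at 37 °C, 5% CO2. Cells: NCI-H441 and AsPC-1, 800/well, RPMI-1640 + 2% FBS, 0.1% DMSO final. IC50 by four-parameter fit of % inhibition against log concentration.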
# [2] = Assay for stability in liver microsomes; assay type: in vitro ADME; conditions: human liver microsomes; for half-life at 1 µM: NADPH, 37° C., 0/30/60 min; for CLint scaled at 1 µM: liver intrinsic clearance rate
# Description: This experiment was intended to investigate the metabolic stability of the test compounds in human liver microsomes. The materials used in the experiment included 10 mM solutions of the test compounds and the control sample, human liver microsomes, and reduced nicotinamide adenine dinucleotide phosphate (NADPH) powder. In the experiment, a 100 mM potassium phosphate buffer was used as the buffer system.
# The liver microsome working solution was prepared by diluting the liver microsome stock solution to 0.75 mg/mL using the 100 mM potassium phosphate buffer. Then, 5 μL of the 10 mM stock solution of the test compound was taken, and 195 μL of methanol was added. The mixture was well mixed to prepare a working solution A with a concentration of 0.25 mM.
# Subsequently, the working solution A was diluted to 1.5 μM using the liver microsome working solution to prepare a compound-liver microsome mixed solution. Additionally, NADPH powder was dissolved in a 100) mM potassium phosphate buffer to prepare a 6 mM NADPH solution. The compound-liver microsome mixed solution was dispensed into a 96-well plate at 30 μL/well, with labeled time points of 0 min, 30 min, and 60 min. For 0-min samples, 180 μL of acetonitrile containing 100 ng/mL tolbutamide and 15 μL of the NADPH solution were added directly. The 96-well plate and the NADPH solution were then preheated under a 37° C. water bath for 5 min. After the preheating, 15 μL of the NADPH solution was added to each of the 30-min and 60-min sample wells. The plate was gently shaken for mixing and then incubated under the 37° C. water bath for the corresponding time. After the incubation was completed. 180 μL of acetonitrile containing 100 ng/mL tolbutamide was added to each sample well. The plate was sealed with a sealing film, shaken for 10 min (800 rpm/min), and then centrifuged for 15 min (4000 rpm). After the centrifugation, 50 μL of the supernatant was taken and added to a 96-well plate containing 150 μL of deionized water, and then the plate was sealed and shaken for 10 min (800 rpm) for uniform mixing. Subsequently sample analysis was performed using liquid chromatography-tandem mass spectrometry (LC-MS/MS).
# The elimination rate constant and clearance rate of the test compound in liver microsomes were calculated using the following formulas: Remaining rate (%)=(peak area ratio of the compound to internal standard at any time point/peak area ratio of the compound to internal standard at 0 min)×100%,^4. T1/2=0.693/ke, where ke is the elimination rate constant and T1/2 is the half-life. Liver microsome intrinsic clearance rate (CLint(mic))=0.693/(T1/2× microsome protein concentration (mg/mL)). Liver intrinsic clearance rate (CLint(liver))=CLint(mic)×microsome protein-to-liver weight ratio (mg/g)×liver-to-body weight ratio (g/kg). In the formulas, CLint(mic) is the liver microsome intrinsic clearance rate, CLint(liver) is the liver intrinsic clearance rate, and CL(liver) is the liver clearance rate. For humans, the microsome protein-to-liver weight ratio was 45 mg/g, and the liver-to-body weight ratio was 20.7 g/kg.
# [3] = Homo sapiens, ASPC1, 3D cell proliferation (CellTiter Glo-3D)
# [4] = 3D cell proliferation (CellTiter Glo-3D)
"IC50 [1, 3]",half-life at 1 µM [2],CLint scaled at 1 µM [2],"IC50 [1, 4]",SMILES
5 nM,36.7 min,43.7 mL/min/kg,,"CCn1c(-c2cc(N3CCN4CC5(CC5)OC[C@@H]4C3)cnc2[C@H](C)OC)c2c3cc(ccc31)-c1csc(n1)C[C@H](NC(=O)[C@H]1[C@H](C)[C@@H]1C)C(=O)N1CCC[C@H](N1)C(=O)OCC1(CC1)C2 (atropisomer, axis not shown; (Ra)) [Compound Z13]"
0.73 nM,,,,"CCn1c(-c2cc(C#C[C@@H]3COCCN3C)cnc2[C@H](C)OC)c2c3cc(ccc31)-c1csc(n1)C[C@H](NC(=O)[C@H]1[C@H](C)[C@@H]1C)C(=O)N1CCC[C@H](N1)C(=O)OCC(C)(C)C2 (atropisomer, axis not shown; (Ra)) [Compound Z672, (1r,2R,3S)—N-((6^3S,4S,Z)-1^1-ethyl-(Ra)-1^2-(2-((S)-1-methoxyethyl)-5-(((R)-4-methylmorpholin-3-yl)ethynyl)pyridin-3-yl)-10,10-dimethyl-5,7-dioxo-6^1,6^2,6^3,6^4,6^5,6^6hexahydro-1^1H-8-oxa-2(4,2)-thiazola-1(5,3)-indola-6(1,3)-pyridazinacycloundecaphane-4-yl)-2,3-dimethylcyclopropane-1-carboxamide]"
,,,0.18 nM,"CO[C@@H](C)c1ncc(C#CCN2CCCOCC2)cc1-c1c2c3cc(ccc3n1CC(F)(F)F)-c1csc(n1)C[C@H](NC(=O)[C@H]1[C@H](C)[C@@H]1C)C(=O)N1CCC[C@H](N1)C(=O)OCC(C)(C)C2 (atropisomer, axis not shown; (Ra)) [Compound Z700, N-((6^3S,4S,Z)-1^1-(2,2,2-trifluoroethyl)-(Ra)-1^2-(2-((S)-1-methoxyethyl)-(5-(3-(1,4-oxazepan-4-yl)prop-1-yn-1-yl))-pyridin-3-yl)-10,10-dimethyl-5,7-dioxo-6^1,6^2,6^3,6^4,6^5,6^6-hexahydro-1^1H-8-oxa-2(4,2)-thiazola-1(5,3)-indola-6(1,3)-pyridazinacycloundecaphane-4-yl)-2,3-dimethylcyclopropane-1-carboxamide]"
,,,0.3 nM,"CCn1c(-c2cc(C#CCN3C4CCC3COC4)cnc2[C@H](C)OC)c2c3cc(ccc31)-c1csc(n1)C[C@H](NC(=O)[C@H]1[C@H](C)[C@@H]1C)C(=O)N1CCC[C@H](N1)C(=O)OCC(C)(C)C2 (atropisomer, axis not shown; (Ra)) [Compound Z711, (1r,2R,3S)—N-((6^3S,4S,Z)—(Ra)-1^2-(5-(3-(3-oxa-8-azabicyclo[3.2.1]octan-8-yl)prop-1-yn-1-yl)-2-((S)-1-methoxyethyl)pyridin-3-yl)-1^1-ethyl-10,10-dimethyl-5,7-dioxo-6^1,6^2,6^3,6^4,6^5,6^6-hexahydro-1^1H-8-oxa-2(4,2)-thiazola-1(5,3)-indola-6(1,3)-pyridazinacycloundecaphane-4-yl)-2,3-dimethylcyclopropane-1-carboxamide]"
2.39 nM,50.3 min,31.9 mL/min/kg,,"CCn1c(-c2cc(C#CCN3CCC(C(F)(F)F)CC3)cnc2[C@H](C)OC)c2c3cc(ccc31)-c1csc(n1)C[C@H](NC(=O)[C@H]1[C@H](C)[C@@H]1C)C(=O)N1CCC[C@H](N1)C(=O)OCC(C)(C)C2 (atropisomer, axis not shown; (Ra)) [Compound Z778]"
,,,0.78 nM,"CCn1c(-c2cc(C#CCN(C)CCOC)cnc2[C@H](C)OC)c2c3cc(ccc31)-c1csc(n1)C[C@H](NC(=O)[C@H]1[C@H](C)[C@@H]1C)C(=O)N1CCC[C@H](N1)C(=O)OCC(C)(C)C2 (atropisomer, axis not shown; (Ra)) [Compound Z788]"
0.19 nM,,,,"CCn1c(-c2cc(C#CCN3CCN(C)C(=O)C3)cnc2[C@H](C)OC)c2c3cc(ccc31)-c1csc(n1)C[C@H](NC(=O)[C@H]1[C@H](C)[C@@H]1C)C(=O)N1CCC[C@H](N1)C(=O)OCC(C)(C)C2 (atropisomer, axis not shown; (Ra)) [Compound Z793]"
0.34 nM,98.7 min,16.2 mL/min/kg,,"CCn1c(-c2cc(C#CCN3CCCN(C)CC3)cnc2[C@H](C)OC)c2c3cc(ccc31)-c1csc(n1)C[C@H](NC(=O)[C@H]1[C@H](C)[C@@H]1C)C(=O)N1CCC[C@H](N1)C(=O)OCC(C)(C)C2 (atropisomer, axis not shown; (Ra)) [Compound Z802, (1r,2R,3S)—N-((6^3S,4S,Z)-1^2-(5-(3-(4-methyl-1,4-diaza-1-yl)prop-1-yn-1-yl)-(Ra)-2-((S)-1-methoxyethyl)pyridin-3-yl)-1^1-ethyl-10,10-dimethyl-5,7-dioxo-6^1,6^2,6^3,6^4,6^5,6^6-hexahydro-1^1H-8-oxa-2(4,2)-thiazola-1(5,3)-indola-6(1,3)-pyridazinacycloundecaphane-4-yl)-2,3-dimethylcyclopropane-1-carboxamide]"
,,,0.18 nM,"CCn1c(-c2cc(C#CCN3CCOC[C@H]3C)cnc2[C@H](C)OC)c2c3cc(ccc31)-c1csc(n1)C[C@H](NC(=O)[C@H]1[C@H](C)[C@@H]1C)C(=O)N1CCCC(N1)C(=O)OCC(C)(C)C2 (atropisomer, axis not shown; (Ra)) [Compound Z813]"
0.03 nM,25 min,64.2 mL/min/kg,,"CCn1c(-c2cc(C#CCN3CCS(=O)(=O)CC3)cnc2[C@H](C)OC)c2c3cc(ccc31)-c1csc(n1)C[C@H](NC(=O)[C@H]1[C@H](C)[C@@H]1C)C(=O)N1CCC[C@H](N1)C(=O)OCC(C)(C)C2 (atropisomer, axis not shown; (Ra)) [Compound Z838, (1r,2R,3S)—N-((6^3S,4S,Z)—(Ra)-1^2-(5-(3-(1,1-dioxidothiomorpholino)prop-1-yn-1-yl)-2-((S)-1-methoxyethyl)pyridin-3-yl)-1^1-ethyl-10,10-dimethyl-5,7-dioxo-6^1,6^2,6^3,6^4,6^5,6^6-hexahydro-1^1H-8-oxa-2(4,2)-thiazola-1(5,3)-indola-6(1,3)-pyridazinacycloundecaphane-4-yl)-2,3-dimethylcyclopropane-1-carboxamide]"
2.82 nM,,,,"CCn1c(-c2cc(C#CCN3CCCOCC3)cnc2[C@H](C)OC)c2c3cc(ccc31)-c1csc(n1)C[C@H](NC(=O)CC1CC1)C(=O)N1CCC[C@H](N1)C(=O)OCC(C)(C)C2 (atropisomer, axis not shown; (Ra)) [Compound Z915]"
0.4 nM,,,,"CCn1c(-c2cc(C#CCN3CCCOCC3)cnc2[C@H](C)OC)c2c3cc(ccc31)-c1csc(n1)C[C@H](NC(=O)[C@H]1[C@H](C)[C@@H]1C)C(=O)N1CCC[C@H](N1)C(=O)OCC(C)(C)C2 (single isomer, unassigned) [Compound Z504]"
1.18 nM,,,,"CCn1c(-c2cc(C#CCN3CCC3)cnc2[C@H](C)OC)c2c3cc(ccc31)-c1csc(n1)C[C@H](NC(=O)[C@H]1[C@H](C)[C@@H]1C)C(=O)N1CCC[C@H](N1)C(=O)OCC(C)(C)C2 (single isomer, unassigned) [Compound Z554]"
0.74 nM,,,,"CCn1c(-c2cc(C#CCN3CCCOCC3)cnc2[C@H](C)OC)c2c3cc(ccc31)-c1csc(n1)C[C@H](NC(=O)[C@H]1C[C@@H]1C)C(=O)N1CCC[C@H](N1)C(=O)OCC(C)(C)C2 (single isomer, unassigned) [Compound Z604]"
1.49 nM,,,,"CCn1c(-c2cc(C#CCN3CCCOCC3)cnc2[C@H](C)OC)c2c3cc(ccc31)-c1csc(n1)C[C@H](NC(=O)CC(C)C)C(=O)N1CCC[C@H](N1)C(=O)OCC(C)(C)C2 (single isomer, unassigned) [Compound Z803]"
